Measured values reported in PubChem BioAssay (NCI).
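1) Cells in 96-well plates. 2) Compound, 48 h, 5 concentrations. 3) Linear interpolation between surrounding doses. 4) Unreached endpoint = highest concentration. GI50 is the concentration that inhibits growth by half. TGI denotes the concentration required for complete inhibition of growth.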

tested on: M14 melanoma; test: DTP human tumour cell line panel, 48 h

First: Cc1c(C(=O)/C=C/c2ccccc2)[n+](=O)c2ccccc2n1[O-]
Second: Br[C](Br)(Br)[Hg][c]1ccccc1
The TGI of the first is 2.4-fold higher: 29.1 µM for the first, 12.2 µM for the second.

Going from N#CC1CC2(C1)OCCS2 (configuration not stated) to CC(=O)C(=CN1CCN(C(=O)c2ccco2)C1=S)C(C)=O, the TGI falls from > 100 µM to 15.4 µM.

O=C1Nc2ccc(F)cc2/C1=C/c1ccc[nH]1 and COc1ccc(CC2NCCc3cc(OC)c(OC)cc32)cc1Br (configuration not stated) cannot be ordered by TGI: > 25 µM for the first, 31 µM for the second.

For C1C[OH+]CC[OH+]CC[OH+]CC[OH+]CC[OH+]1.[Cl-].[V], the TGI was > 100 µM.

Going from O=C1Nc2ccc(F)cc2/C1=C/c1ccc[nH]1 to Br[C](Br)(Br)[Hg][c]1ccccc1, the GI50 falls from > 25 µM to 5.23 µM.

First: C1C[OH+]CC[OH+]CC[OH+]CC[OH+]CC[OH+]1.[Cl-].[V]
Second: CC(=O)C(=CN1CCN(C(=O)c2ccco2)C1=S)C(C)=O
The GI50 of the first is 11-fold higher: 45.3 µM for the first, 4.03 µM for the second.

tested on: U251 CNS; test: DTP human tumour cell line panel, 48 h

First: CC1=C[C@H]2c3c(c(O)c(O)c4oc(-c5ccccc5)cc(=O)c34)[C@H](c3cc(O)c(O)c4oc(-c5ccccc5)cc(=O)c34)[C@H]2C(C)(C)C1
Second: CCn1c(SCc2ccc(C)cc2)nnc1-c1nn(-c2ccc(Cl)cc2Cl)c(-c2ccc(Cl)cc2)c1C
The GI50 of the first is 2.2-fold lower: 0.415 µM for the first, 0.925 µM for the second.

Nc1nc(F)nc2c1ncn2C1OC(CO)C(O)C1O (configuration not stated) and O=C1Nc2ccc(F)cc2/C1=C/c1ccc[nH]1 cannot be ordered by GI50: 70.7 µM for the first, > 25 µM for the second.

Going from O=c1cccc(C#CC#CC2=CCCCC2)o1 to Br[C](Br)(Br)[Hg][c]1ccccc1, the GI50 rises from 4.13 µM to 13.9 µM (3.4-fold).

Compared with C1C[OH+]CC[OH+]CC[OH+]CC[OH+]CC[OH+]1.[Cl-].[V], CC(=O)C(=CN1CCN(C(=O)c2ccco2)C1=S)C(C)=O is 10-fold lower in GI50: 50.4 µM for the first, 4.84 µM for the second.

First: CC1=C[C@H]2c3c(c(O)c(O)c4oc(-c5ccccc5)cc(=O)c34)[C@H](c3cc(O)c(O)c4oc(-c5ccccc5)cc(=O)c34)[C@H]2C(C)(C)C1
Second: COc1ccc(OC)c2c(C(=O)O)c(Cc3ccccc3)ccc12
The TGI of the first is lower: 18.7 µM for the first, > 100 µM for the second.

First: N#Cc1cccnc1Cl
Second: O=c1cccc(C#CC#CC2=CCCCC2)o1
The TGI of the first is higher: > 100 µM for the first, 9.46 µM for the second.

Nc1nc(F)nc2c1ncn2C1OC(CO)C(O)C1O (configuration not stated) and O=C(Nc1c(Cl)cc([N+](=O)[O-])cc1Cl)C(=O)C(C1OC(=O)c2ccccc21)[N+](=O)[O-] (configuration not stated) cannot be ordered by TGI: > 100 µM for the first, > 100 µM for the second.

Going from CCn1c(SCc2ccc(C)cc2)nnc1-c1nn(-c2ccc(Cl)cc2Cl)c(-c2ccc(Cl)cc2)c1C to CCn1c(-c2ccc(OC(C)=O)cc2)c(C)c2cc(OC(C)=O)ccc21, the TGI rises from 11.8 µM to 26.2 µM (2.2-fold).

Cc1c(C(=O)/C=C/c2ccccc2)[n+](=O)c2ccccc2n1[O-] and Br[C](Br)(Br)[Hg][c]1ccccc1 are within 1.5-fold of each other in TGI: 29.7 µM for the first, 27.6 µM for the second.

Going from N#CC1CC2(C1)OCCS2 (configuration not stated) to CC(=O)C(=CN1CCN(C(=O)c2ccco2)C1=S)C(C)=O, the TGI falls from > 100 µM to 23.6 µM.

O=C1Nc2ccc(F)cc2/C1=C/c1ccc[nH]1 and COc1ccc(CC2NCCc3cc(OC)c(OC)cc32)cc1Br (configuration not stated) cannot be ordered by TGI: > 25 µM for the first, > 100 µM for the second.

For C1C[OH+]CC[OH+]CC[OH+]CC[OH+]CC[OH+]1.[Cl-].[V], the TGI was > 100 µM.

tested on: 786-0 renal; test: DTP human tumour cell line panel, 48 h

First: CC1=C[C@H]2c3c(c(O)c(O)c4oc(-c5ccccc5)cc(=O)c34)[C@H](c3cc(O)c(O)c4oc(-c5ccccc5)cc(=O)c34)[C@H]2C(C)(C)C1
Second: CCn1c(SCc2ccc(C)cc2)nnc1-c1nn(-c2ccc(Cl)cc2Cl)c(-c2ccc(Cl)cc2)c1C
The GI50 of the first is 1.6-fold lower: 1.71 µM for the first, 2.69 µM for the second.

Compared with Nc1nc(F)nc2c1ncn2C1OC(CO)C(O)C1O (configuration not stated), O=C1Nc2ccc(F)cc2/C1=C/c1ccc[nH]1 is higher in GI50: 13.2 µM for the first, > 25 µM for the second.

First: O=c1cccc(C#CC#CC2=CCCCC2)o1
Second: Br[C](Br)(Br)[Hg][c]1ccccc1
The GI50 of the first is 10-fold lower: 1.59 µM for the first, 16.2 µM for the second.

Compared with C1C[OH+]CC[OH+]CC[OH+]CC[OH+]CC[OH+]1.[Cl-].[V], CC(=O)C(=CN1CCN(C(=O)c2ccco2)C1=S)C(C)=O is 3.6-fold lower in GI50: 19 µM for the first, 5.34 µM for the second.

Compared with CC1=C[C@H]2c3c(c(O)c(O)c4oc(-c5ccccc5)cc(=O)c34)[C@H](c3cc(O)c(O)c4oc(-c5ccccc5)cc(=O)c34)[C@H]2C(C)(C)C1, COc1ccc(OC)c2c(C(=O)O)c(Cc3ccccc3)ccc12 is higher in TGI: 7.83 µM for the first, > 100 µM for the second.

Going from N#Cc1cccnc1Cl to O=c1cccc(C#CC#CC2=CCCCC2)o1, the TGI falls from > 100 µM to 4.35 µM.

Nc1nc(F)nc2c1ncn2C1OC(CO)C(O)C1O (configuration not stated) and O=C(Nc1c(Cl)cc([N+](=O)[O-])cc1Cl)C(=O)C(C1OC(=O)c2ccccc21)[N+](=O)[O-] (configuration not stated) cannot be ordered by TGI: > 100 µM for the first, > 100 µM for the second.

Going from CCn1c(SCc2ccc(C)cc2)nnc1-c1nn(-c2ccc(Cl)cc2Cl)c(-c2ccc(Cl)cc2)c1C to CCn1c(-c2ccc(OC(C)=O)cc2)c(C)c2cc(OC(C)=O)ccc21, the TGI rises from 12.2 µM to 86.9 µM (7.1-fold).

Cc1c(C(=O)/C=C/c2ccccc2)[n+](=O)c2ccccc2n1[O-] and Br[C](Br)(Br)[Hg][c]1ccccc1 are within 1.5-fold of each other in TGI: 32 µM for the first, 30.2 µM for the second.

Compared with N#CC1CC2(C1)OCCS2 (configuration not stated), CC(=O)C(=CN1CCN(C(=O)c2ccco2)C1=S)C(C)=O is lower in TGI: > 100 µM for the first, 18.8 µM for the second.

O=C1Nc2ccc(F)cc2/C1=C/c1ccc[nH]1 and COc1ccc(CC2NCCc3cc(OC)c(OC)cc32)cc1Br (configuration not stated) cannot be ordered by TGI: > 25 µM for the first, > 100 µM for the second.

With C1C[OH+]CC[OH+]CC[OH+]CC[OH+]CC[OH+]1.[Cl-].[V] the TGI was 43.7 µM.
